Results as given in patent US20190381127A1, “COMBINATION THERAPY WITH A6, CHEMOTHERAPEUTIC AGENTS, RADIATION THERAPY, OR A COMBINATION THEREOF FOR THE TREATMENT OF CANCER” (Splash Pharmaceuticals, Inc., priority 2016, published 2019).

Tests used:
[1] = system: U87MG human glioma cells; experiment: Subcutaneous glioma xenograft; type: in vivo, BALB/c (nu/nu) mice
Protocol: (§1) Glioblastoma: In animal models of glioblastoma, U87MG human glioma cells were implanted subcutaneously or intracranially in BALB/c (nu/nu) mice and the animals were divided into different treatment groups. […] In this study the effects of cisplatin were also examined.

[2] = system: U87MG human glioma cells; experiment: Intracranial glioma xenograft; type: in vivo, BALB/c (nu/nu) mice
Protocol: as §1

[3] = system: A2780/CP cells; experiment: CCK-8 cytotoxicity, A6 plus DDP; type: cell-based, human
Protocol: Study Conditions. Drugs: […] Drug exposure time: 1 hour; Cell line: […] Media: RPMI 1640 plus 10% FBS containing 1 mM penicillin/streptomycin; Cytotoxicity Assays: CCK-8 (Cell Counting Kit 8-Dojindo Molecular Technologies). Tissue culture plates containing 96-well plates were seeded with 4000 cells in 100 μl of media per well. The wells on rows A-[…] cells, while the wells on rows E-[…]/CP cells. […] After 1 h, increasing concentrations of DDP were added to triplicate wells in 100 μl medium. […] The cells were then allowed to grow for 96 h following which the plates were assayed for relative cell growth with the CCK-8 assay. CCK-8 assay. Five μl of CCK-8 stain was added to each well and the plate was incubated at 37° C. incubator for 4 h. The plate was read with a microplate reader at a wavelength of 450 nm. (See FIGS. 5A-5D and FIG. 6). The assay was performed using triplicate wells for each DDP concentration. The data in the tables below is the optical density in the well which is a function of the number of live cells remaining at the end of the 96 h growth period.

[4] = system: IGROV-1/CP cells; experiment: CCK-8 cytotoxicity, A6 plus DDP; type: cell-based, human
Protocol: Study Conditions. Drugs: […] Drug exposure time: 1 hour; Cell line: IGROV-1 and its DDP-resistant subline IGROV-1/CP; Media: RPMI 1640 plus 10% FBS containing 1 mM penicillin/streptomycin; Cytotoxicity Assays: CCK-8 (Cell Counting Kit 8—Dojindo Molecular Technologies). Tissue culture plates containing 96-well plates were seeded with 4000 cells in 100 μl of media per well. The wells on rows A-D were seeded with IGROV-1 cells, while the wells on rows E-H were seeded with IGROV-1/CP cells. […] After 1 h, increasing concentrations of DDP were added to triplicate wells in […] medium. […] The cells were then allowed to grow for 96 h following which the plates were assayed for relative cell growth with the CCK-8 assay. CCK-8 assay. […] of CCK-8 stain was added to each well and the plate was incubated at 37° C. incubator for 4 h. The plate was read with a microplate reader at a wavelength of 450 nm. (See FIGS. 7A-7D and FIG. 8). The assay was performed using triplicate wells for each DDP concentration. The data in the tables below is the optical density in the well which is a function of the number of live cells remaining at the end of the 96 h growth period.

[5] = system: HEY/C2 (DDP resistant) cells; experiment: CCK-8 cytotoxicity of DDP/PTX with or without A6; type: cell-based; conditions: 72 hours
Protocol: The cells were plated in 96-well plates as described and incubated overnight. […] The CCK-8 assay described herein was performed to access cytotoxicity of DDP/PTX.

[6] = target: T1, CD44 on B16-F10 melanoma cells (UniProt P15379 23-778); experiment: cell-based or functional assay
T1 sequence (looked up): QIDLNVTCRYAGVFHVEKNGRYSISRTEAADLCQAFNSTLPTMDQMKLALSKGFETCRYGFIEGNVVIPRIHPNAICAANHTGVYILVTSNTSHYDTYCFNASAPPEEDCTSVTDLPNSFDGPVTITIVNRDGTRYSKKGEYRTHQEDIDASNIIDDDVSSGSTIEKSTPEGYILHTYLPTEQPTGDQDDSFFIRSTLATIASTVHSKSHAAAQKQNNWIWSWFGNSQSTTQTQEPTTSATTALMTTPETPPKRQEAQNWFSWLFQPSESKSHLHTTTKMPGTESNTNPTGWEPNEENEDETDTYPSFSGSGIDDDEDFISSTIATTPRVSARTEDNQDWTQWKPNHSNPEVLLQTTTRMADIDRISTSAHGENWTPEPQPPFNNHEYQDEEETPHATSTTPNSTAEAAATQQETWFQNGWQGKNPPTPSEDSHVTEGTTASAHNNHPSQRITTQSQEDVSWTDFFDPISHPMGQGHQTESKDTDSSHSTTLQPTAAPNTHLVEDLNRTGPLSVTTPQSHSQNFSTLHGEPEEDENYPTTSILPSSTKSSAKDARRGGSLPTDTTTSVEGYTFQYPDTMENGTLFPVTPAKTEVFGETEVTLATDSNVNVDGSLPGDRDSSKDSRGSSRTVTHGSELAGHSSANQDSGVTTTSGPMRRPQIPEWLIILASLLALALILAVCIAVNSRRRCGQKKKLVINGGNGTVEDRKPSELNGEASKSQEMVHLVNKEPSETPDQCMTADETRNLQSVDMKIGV

N.N.[Cl][Pt][Cl] [cisplatin, reference compound]
inhibition of subcutaneous tumor growth [1]: 53%
inhibition of tumor growth [2]: 82%
resistance of the cells to DDP [3]: not very resistant
resistance of the cells to DDP [4]: appeared not to be resistant
IC50 in HEY/C2 cells compared to HEY cells [5]: about 7 fold

CC(=O)O[C@H]1C(=O)[C@@]2(C)[C@H]([C@H](OC(=O)c3ccccc3)[C@]3(O)C[C@H](OC(=O)[C@H](O)[C@@H](NC(=O)c4ccccc4)c4ccccc4)C(C)=C1C3(C)C)[C@]1(OC(C)=O)CO[C@@H]1C[C@@H]2O [paclitaxel, reference compound]
resistance of HEY/C2 cells compared to HEY cells [5]: resisted to paclitaxel

B1: A6 peptide (Ac-KPSSPPEE-NH2) (peptide)
peptide: Ac-KPSSPPEE-NH2
IC50 for A6 inhibition of chemotaxis in B16-F10 cells [6]: 29 nM
